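Test compounds were applied to cells in 96-well plates for 48 hours at 5 doses. The concentration for 50% growth inhibition is given as GI50. The concentration for full growth arrest is given as TGI.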
Tests used:
Experiment in all cases: NCI-60 cell line screen, 48 h
786-0 renal = system: 786-0 renal
A498 renal = system: A498 renal
A549 NSCLC = system: A549 NSCLC
ACHN renal = system: ACHN renal
BT-549 breast = system: BT-549 breast
CAKI-1 renal = system: CAKI-1 renal
CCRF-CEM leukemia = system: CCRF-CEM leukemia
COLO 205 colon = system: COLO 205 colon
DU-145 prostate = system: DU-145 prostate
EKVX NSCLC = system: EKVX NSCLC
HCC-2998 colon = system: HCC-2998 colon
HCT-116 colon = system: HCT-116 colon
HCT-15 colon = system: HCT-15 colon
HOP-62 NSCLC = system: HOP-62 NSCLC
HOP-92 NSCLC = system: HOP-92 NSCLC
HS 578T breast = system: HS 578T breast
HT29 colon = system: HT29 colon
IGROV1 ovarian = system: IGROV1 ovarian
K-562 leukemia = system: K-562 leukemia
KM12 colon = system: KM12 colon
M14 melanoma = system: M14 melanoma
MALME-3M melanoma = system: MALME-3M melanoma
MCF7 breast = system: MCF7 breast
MDA-MB-231 breast = system: MDA-MB-231 breast
MDA-MB-435 = system: MDA-MB-435
MDA-MB-468 breast = system: MDA-MB-468 breast
NCI-H226 lung = system: NCI-H226 lung
NCI-H23 lung = system: NCI-H23 lung
NCI-H460 lung = system: NCI-H460 lung
NCI-H522 lung = system: NCI-H522 lung
OVCAR-3 ovarian = system: OVCAR-3 ovarian
OVCAR-4 ovarian = system: OVCAR-4 ovarian
OVCAR-5 ovarian = system: OVCAR-5 ovarian
OVCAR-8 ovarian = system: OVCAR-8 ovarian
PC-3 prostate = system: PC-3 prostate
RPMI-8226 leukemia = system: RPMI-8226 leukemia
RXF 393 renal = system: RXF 393 renal
SF-268 CNS = system: SF-268 CNS
SF-295 CNS = system: SF-295 CNS
SF-539 CNS = system: SF-539 CNS
SK-MEL-2 melanoma = system: SK-MEL-2 melanoma
SK-MEL-28 melanoma = system: SK-MEL-28 melanoma
SK-MEL-5 melanoma = system: SK-MEL-5 melanoma
SK-OV-3 ovarian = system: SK-OV-3 ovarian
SN12C renal = system: SN12C renal
SNB-19 CNS = system: SNB-19 CNS
SR leukemia = system: SR leukemia
SW-620 colon = system: SW-620 colon
T-47D breast = system: T-47D breast
TK-10 renal = system: TK-10 renal
U251 CNS = system: U251 CNS
UACC-257 melanoma = system: UACC-257 melanoma
UACC-62 melanoma = system: UACC-62 melanoma
UO-31 renal = system: UO-31 renal

SMILES: COc1cc(/C=C/C(=O)c2cnn(-c3cc(=O)[nH]c4ccc(Cl)cc34)c2C)cc(OC)c1OC
- GI50 (786-0 renal): 4.09 µM
- TGI (786-0 renal): 21.1 µM
- GI50 (A498 renal): 34.2 µM
- TGI (A498 renal): 87.4 µM
- GI50 (A549 NSCLC): 3.09 µM
- TGI (A549 NSCLC): > 100 µM
- GI50 (ACHN renal): 1760 nM
- TGI (ACHN renal): 3.68 µM
- GI50 (BT-549 breast): 2760 nM
- TGI (BT-549 breast): 9.98 µM
- GI50 (CAKI-1 renal): 4.17 µM
- TGI (CAKI-1 renal): 22.5 µM
- GI50 (CCRF-CEM leukemia): 2420 nM
- TGI (CCRF-CEM leukemia): > 100 µM
- GI50 (COLO 205 colon): 3.53 µM
- TGI (COLO 205 colon): 14 µM
- GI50 (DU-145 prostate): 3.3 µM
- TGI (DU-145 prostate): > 100 µM
- GI50 (EKVX NSCLC): 2960 nM
- TGI (EKVX NSCLC): 14.1 µM
- GI50 (HCC-2998 colon): 2780 nM
- TGI (HCC-2998 colon): 8.21 µM
- GI50 (HCT-116 colon): 3.58 µM
- TGI (HCT-116 colon): 17.5 µM
- GI50 (HCT-15 colon): 1930 nM
- TGI (HCT-15 colon): 5.01 µM
- GI50 (HOP-62 NSCLC): 3.57 µM
- TGI (HOP-62 NSCLC): 25.8 µM
- GI50 (HOP-92 NSCLC): 7.31 µM
- TGI (HOP-92 NSCLC): 99.8 µM
- GI50 (HS 578T breast): 3.31 µM
- TGI (HS 578T breast): > 100 µM
- GI50 (HT29 colon): 2500 nM
- TGI (HT29 colon): 6.58 µM
- GI50 (IGROV1 ovarian): 2540 nM
- TGI (IGROV1 ovarian): 7.18 µM
- GI50 (K-562 leukemia): 2680 nM
- TGI (K-562 leukemia): > 100 µM
- GI50 (KM12 colon): 3.37 µM
- TGI (KM12 colon): 15 µM
- GI50 (M14 melanoma): 3.2 µM
- TGI (M14 melanoma): 19.8 µM
- GI50 (MALME-3M melanoma): 5.1 µM
- TGI (MALME-3M melanoma): 27.2 µM
- GI50 (MCF7 breast): 2480 nM
- TGI (MCF7 breast): 10.2 µM
- GI50 (MDA-MB-231 breast): 3.3 µM
- TGI (MDA-MB-231 breast): 14.9 µM
- GI50 (MDA-MB-435): 2600 nM
- TGI (MDA-MB-435): 8.12 µM
- GI50 (MDA-MB-468 breast): 1800 nM
- TGI (MDA-MB-468 breast): 4.41 µM
- GI50 (NCI-H226 lung): 2890 nM
- TGI (NCI-H226 lung): 9.13 µM
- GI50 (NCI-H23 lung): 2210 nM
- TGI (NCI-H23 lung): 5.9 µM
- GI50 (NCI-H460 lung): 1880 nM
- TGI (NCI-H460 lung): 4.32 µM
- GI50 (NCI-H522 lung): 2660 nM
- TGI (NCI-H522 lung): 8.38 µM
- GI50 (OVCAR-3 ovarian): 3.06 µM
- TGI (OVCAR-3 ovarian): 9.9 µM
- GI50 (OVCAR-4 ovarian): 3.58 µM
- TGI (OVCAR-4 ovarian): > 100 µM
- GI50 (OVCAR-5 ovarian): 3.32 µM
- TGI (OVCAR-5 ovarian): 13.4 µM
- GI50 (OVCAR-8 ovarian): 2060 nM
- TGI (OVCAR-8 ovarian): 4.95 µM
- GI50 (PC-3 prostate): 6.28 µM
- TGI (PC-3 prostate): > 100 µM
- GI50 (RPMI-8226 leukemia): 2420 nM
- TGI (RPMI-8226 leukemia): > 100 µM
- GI50 (RXF 393 renal): 2080 nM
- TGI (RXF 393 renal): 4.95 µM
- GI50 (SF-268 CNS): 3.42 µM
- TGI (SF-268 CNS): > 100 µM
- GI50 (SF-295 CNS): 3.16 µM
- TGI (SF-295 CNS): 11.5 µM
- GI50 (SF-539 CNS): 2080 nM
- TGI (SF-539 CNS): 4.62 µM
- GI50 (SK-MEL-2 melanoma): 2980 nM
- TGI (SK-MEL-2 melanoma): 11.8 µM
- GI50 (SK-MEL-28 melanoma): 3.36 µM
- TGI (SK-MEL-28 melanoma): 13.3 µM
- GI50 (SK-MEL-5 melanoma): 3.22 µM
- TGI (SK-MEL-5 melanoma): 12 µM
- GI50 (SK-OV-3 ovarian): 4.68 µM
- TGI (SK-OV-3 ovarian): > 100 µM
- GI50 (SN12C renal): 2640 nM
- TGI (SN12C renal): 9.24 µM
- GI50 (SNB-19 CNS): 3.36 µM
- TGI (SNB-19 CNS): 14.4 µM
- GI50 (SR leukemia): 2020 nM
- TGI (SR leukemia): > 100 µM
- GI50 (SW-620 colon): 2970 nM
- TGI (SW-620 colon): 11.5 µM
- GI50 (T-47D breast): 3.08 µM
- TGI (T-47D breast): > 100 µM
- GI50 (TK-10 renal): 3.26 µM
- TGI (TK-10 renal): > 100 µM
- GI50 (U251 CNS): 2830 nM
- TGI (U251 CNS): > 100 µM
- GI50 (UACC-257 melanoma): 7.19 µM
- TGI (UACC-257 melanoma): 64.4 µM
- GI50 (UACC-62 melanoma): 3.36 µM
- TGI (UACC-62 melanoma): 15 µM
- GI50 (UO-31 renal): 3.26 µM
- TGI (UO-31 renal): 14.5 µM

— PubChem BioAssay (NCI)
